Measured values as given in US12364689B2, “Dosage regimen for the treatment of cancer” (AstraZeneca AB, priority 2020, dated 2025).

Experiments:
[1] = Phase 1 clinical trial: pharmacokinetics of AZD9833 in plasma; format: in vivo, human
Text: The “median terminal half-life” is the median time for a patient's drug blood plasma concentration to halve after reaching pseudo-equilibrium.
Pharmacokinetics: The characterisation of the pharmacokinetics of single and multiple doses of AZD9833 is a secondary objective of this study. Any residual sample remaining after PK analysis has been performed may be used to identify, characterise, and establish the concentration of AZD9833 metabolites and drug-related products in plasma, and/or to conduct exploratory biomarker research. Analysis of AZD9833 in plasma and urine will be performed using appropriate bioanalytical methods. Full details of the analytical methods used will be described in separate bioanalytical reports.
All samples within the known stability of the analytes of interest at the time of receipt by the bioanalytical laboratory will be analysed. In addition, the PK samples may be subjected to further analyses to identify, characterise, and establish the concentration of metabolites in plasma. Any results from such analyses will be reported separately from the clinical study report. Incurred sample reproducibility analysis, if any, will be performed with the bioanalysis of the test samples. The results from the evaluation will not be reported in the clinical study report but, separately, in a bioanalytical report. […]

[2] = system: ER signalling pathway / Ki67; assay: Phase 1 clinical trial: pharmacodynamic biomarkers in paired tumour biopsies; format: in vivo, human
Text: Pharmacodynamics: Pharmacodynamic measurements will be made on a number of biomarkers (e.g., optional tumour biopsies, plasma ctDNA, CTC, and archival tumour tissue). Biological samples (archival tumour tissue, mandatory and optional biopsies where applicable) will be collected for the analysis of tumour DNA as an exploratory objective in this study. A 2-mL blood sample for DNA isolation will be collected prior to administration of the first dose of AZD9833 from subjects who have consented to participate in the genetic analysis component of this study. If for any reason the sample is not drawn prior to dosing, it may be taken at any visit until the last study visit. Only one sample for genetic research should be collected per subject during the study. Participation is optional.
In Part A, paired tumour biopsy samples will be taken from at least 2 subjects at each dose level. In Part B, these biopsies will be taken from at least 5 post-menopausal subjects at each AZD9833 dose level, 300 mg, 150 mg and 75 mg and at least 5 from pre-menopausal subjects at 300 mg. If subjects are willing to participate in this part of the study, they will sign a biopsy-specific written informed consent. Paired tumour biopsies will be obtained from subjects with accessible tumours who have consented to biopsies. […]

In the case of C[C@@H]1Cc2c(ccc3[nH]ncc23)[C@@H](c2ccc(NC3CN(CCCF)C3)cn2)N1CC(F)(F)F [AZD9833, N-(1-(3-fluoropropyl)azetidin-3-yl)-6-((6S,8R)-8-methyl-7-(2,2,2-trifluoroethyl)-6,7,8,9-tetrahydro-3H-pyrazolo[4,3-f]isoquinolin-6-yl) pyridin-3-amine], the “AZD9833 exposure versus dose” value ([1]; after multiple doses) is reported as “dose proportional”, the half-life ([1]; human, plasma, patients, oral QD dosing, across five doses, read-out: median terminal t1/2 (converted)) is reported as 12 h and the “ER signalling pathway modulation” value ([2]; all dose cohorts) is reported as “observed in all dose cohorts”. For the same compound, the “reduction in Ki67” value ([2]; patients where clinical responses occurred and paired biopsies obtained) was 98%.
